Data on 18 compounds can be found in patent US4663323A, “Tetrazole derivatives, anti-ulcer composition containing the same and method for treating ulcers” (Otsuka Pharmaceutical Co., Ltd., priority 1984, dated 1987).

Where two headings read alike, the source gives them in different places.

In general, LD50 refers to the dose expected to kill half of the subjects tested.

Series [1] is described as follows: Acute Toxicity. Particulars: rat, in vivo, po, male Wistar rats. Here is the method:
The test compounds were orally administered to male Wistar rats, and the half lethal dose (LD50) was measured.

The test system of series [2] is Stress Ulcer. Put plainly: Stress Ulcer. It is filed as in vivo, male Wistar rats. Particulars: oral, 1×10^-3 mole in 0.5% CMC, before restraint and water dipping at 23° C. for 7 hours. On the procedure: After male Wistar rats weighing about 170 g was fasted for 24 hours, the rats were restrained in a stress cage and dipped in water bath at 23° C. till chest of the animals. After 7 hours, the rats were killed and the stomach was isolated. Into the isolated stomach 10% formalin (8 ml) was poured and settled. The stomach was cut open at the greater curvature, and the length of each ulcer on the membrane was measured. Sum of the length of all ulcers was shown as ulcer index (UI). The test compound was orally administered to the rats before restraint in a stress cage in the form of 0.5% CMC suspension in a concentration of 1×10^-3 mole. As a control, only the solvent (CMC solution) was administered likewise.
The inhibitory ratio (%) of stress ulcer of the test compounds was calculated by the following equation: [formula]
(§1) In the table, the inhibitory ratio (%) was evaluated as follows: […]

Series [3] concerns gastric juice secretion. The series can be described thus: Shay rat pylorus ligation method (gastric juice secretion-inhibiting activity). The class given is in vivo, male Wistar rats. Particulars: sc, 4 h, 100 mg/kg s.c., 30 min before pylorus ligation, measured 4 hours after ligation. Here is the method: The pharmacological activities of the compouns (I) were tested by a Shay rat pylorus ligation method (cf. H. Shay et al: Gastroenterol., Vol. 5, page 43, 1945) which is the most popular method for testing of gastric juice secretion-inhibiting activity. The test was carried out by using male Wistar rats, weighing about 170 g and fasting for 24 hours.
Test compounds were administered 30 minutes before the pylorus ligation in a dose of 100 mg/kg in subcutaneous route, and the volume, total acidity and/or pepsin activity of the gastric juice were measured 4 hours after the ligation. As a control, a saline solution was administered instead of the test compound. The inhibitory ratio (%) of the test compounds were calculated when the inhibitory activities of the control were counted as zero (0).
as §1

Series [4] concerns Acetic Acid-Induced Ulcer. The series can be described thus: Acetic Acid-Induced Ulcer. It is filed as in vivo, Male Wistar rats. Particulars: oral, twice a day for 12 days. On the procedure: Male Wistar rats were used. Under anestherization, the abdomen of rats were opened to expose stomach, and then 30% aqueous acetic acid (0.015 ml) was injected below serous membrane which was located at boundary area of true gastric gland and pyloric glands and thereafter the abdomen was closed, by which an experimental ulcer was induced.
The test compound was orally administered in the dose as shown in Table 3 in the form of 0.5% CMC suspension or solution twice a day for 12 days after the acetic acid-induced ulcer was produced. As a control, only the solvent (CMC solution) was administered likewise.
After the reproduced mucous membrane was removed around the ulcers, the open area of ulcers was measured with a micrometer, and the sum of ulcer area was shown as ulcer index (UI). The inhibitory ratio (%) of acetic acid-induced ulcer of the test compounds was calculated in the same manner as in Pharmacological Test 2.
as §1

Series [5] deals with Indomethacin-Induced Ulcer. Put plainly: Indomethacin-Induced Ulcer. The class given is in vivo, male Wistar rats. Conditions: oral, 3×10^-4 mole in 0.5% CMC, 30 min before indomethacin 20 mg/kg s.c. On the procedure: After male Wistar rats weighing about 160 g was fasted for 24 hours, indomethacin was subcutaneously administered to the rats in a dose of 20 mg/kg in the form of a suspension in a mixture of 0.5% CMC and a small amount of Tween 80 (i.e. polyoxyethylene sorbitan monooleate). After 5 hours, the rats were killed and the stomach was isolated. Into the isolated stomach 10% formalin (8 ml) was poured and settled. The stomach was cut open at the greater curvature, and the length of each ulcer on the membrane was measured, based on which results the inhibitory ratio of the indomethacin-induced ulcer of the test compounds was calculated in the same manner as in Pharmacological Test 2. The test compound was orally administered to the rats in a concentration of 3×10^-4 mole in the form of 0.5% CMC suspension 30 minutes before the administration of indomethacin.
as §1

The mark [6] stands for this setting: saline control = 0, read-out: Inhibitory ratio, Pepsin activity.
[7] abbreviates: saline control = 0, read-out: Inhibitory ratio, Total acidity.
The mark [8] stands for this setting: saline control = 0, read-out: Inhibitory ratio, Volume of gastric juice.

Turning to `CCN(CC)C(=O)CCCSc1nnnn1C` [Compound 1, N,N-Diethyl-4-(1-methyl-1,2,3,4-tetrazol-5-yl)thio-butyramide], the median lethal dose (LD50) in series [1] is more than 500 mg/kg. Further, the “Inhibitory ratio of stress ulcer” value in series [2] was “++ (more than 60%)”. Besides, the inhibition in vivo at 100 mg/kg in series [3] (setting [6]), in series [3] (setting [7]) and in series [3] (setting [8]) was more than 50% throughout.

In series [1], `CCN(C(=O)CCCSc1nnnn1C)C1CCCCC1` [Compound 2, N-Ethyl-N-cyclohexyl-4-(1-methyl-1,2,3,4-tetrazol-5-yl)thio-butyramide] had a 50% lethal dose (LD50) of more than 500 mg/kg. Besides, the inhibition in vivo at 100 mg/kg in series [3] (setting [6]), in series [3] (setting [7]) and in series [3] (setting [8]) was more than 50% each time. Further, in series [4] (20 mg/kg.day), the “Inhibitory ratio of acetic acid-induced ulcer” value is on record as “+ (30 to less than 60%)”.

For the compound `CCN(C(=O)CCCCc1nnnn1-c1ccccc1)C1CCCCC1` [Compound 4, N-Ethyl-N-cyclohexyl-5-(1-phenyl-1,2,3,4-tetrazol-5-yl)valeramide], in series [1], the 50% lethal dose (LD50) was more than 500 mg/kg. Besides, the “Inhibitory ratio of stress ulcer” value in series [2] is “++ (more than 60%)”. The inhibition in vivo at 100 mg/kg in series [3] (setting [6]), in series [3] (setting [7]) and in series [3] (setting [8]) was 10 to 50% in each case.

As to `CN(C)c1ccc(NC(=O)CCCSc2nnnn2C)cc1` [Compound 7, N-[4-(N,N-dimethylamino)phenyl]-4-(1-methyl-1,2,3,4-tetrazol-5-yl)thio-butyramide], the LD50 in series [1] is more than 500 mg/kg. For the same compound, the “Inhibitory ratio of stress ulcer” value in series [2] is reported as “++ (more than 60%)”. Moreover, the results for the inhibition in vivo at 100 mg/kg in series [3] (setting [6]), in series [3] (setting [7]) and in series [3] (setting [8]) were 10 to 50%, 10 to 50% and more than 50%, respectively.

In series [1], `CCN(C(=O)CCCSc1nnnn1C)c1ccccc1` [Compound 9, N-Ethyl-N-phenyl-4-(1-methyl-1,2,3,4-tetrazol-5-yl)thio-butyramide] registered a median lethal dose (LD50) of more than 500 mg/kg. The “Inhibitory ratio of acetic acid-induced ulcer” value in series [4] (20 mg/kg.day) is given as “+ (30 to less than 60%)”.

Compound `CCNC(=O)CCCSCc1nnnn1CC` [Compound 17, N-Ethyl-4-(1-ethyl-1,2,3,4-tetrazol-5-yl)-methylthio-butyramide] displayed an LD50 in series [1] of more than 500 mg/kg. Further, the “Inhibitory ratio of stress ulcer” value in series [2] is given as “+ (30 to less than 60%)”.

Consider `CCn1nnnc1CSCCC(N)=O` [Compound 19, 3-(1-Ethyl-1,2,3,4-tetrazol-5-yl)methylthio-propionamide], for which the LD50 in series [1] was more than 500 mg/kg. In addition, the “Inhibitory ratio of acetic acid-induced ulcer” value in series [4] (3 × 10^-5 mole/kg.day) is “+ (30 to less than 60%)”.

As to `COc1ccc(CCNC(=O)CCCSc2nnnn2C)cc1OC` [Compound 26, N-[2-(3,4-Dimethoxyphenyl)ethyl]-4-(1-methyl-1,2,3,4-tetrazol-5-yl)thio-butyramide], the inhibition in vivo at 100 mg/kg is less than 10% in series [3] (setting [6]), 10 to 50% in series [3] (setting [7]) and more than 50% in series [3] (setting [8]). In series [4] (20 mg/kg.day), the “Inhibitory ratio of acetic acid-induced ulcer” value is “+ (30 to less than 60%)”.

`CN(C)C(=O)CCCSc1nnnn1C` [Compound 28, N,N-Dimethyl-4-(1-methyl-1,2,3,4-tetrazol-5-yl)thio-butyramide]: the inhibition in vivo at 100 mg/kg in series [3] (setting [6]) was 10 to 50%; in series [3] (setting [7]), more than 50%; in series [3] (setting [8]), more than 50%. Besides, in series [4] (20 mg/kg.day), the “Inhibitory ratio of acetic acid-induced ulcer” value is “+ (30 to less than 60%)”.

`COC(=O)CCCSc1nnnn1C` [Compound 37, Methyl 4-(1-methyl-1,2,3,4-tetrazol-5-yl)-thio-butyrate]: the inhibition in vivo at 100 mg/kg in series [3] (setting [8]) fell in the range of 10 to 50%. In addition, in series [4] (20 mg/kg.day), the “Inhibitory ratio of acetic acid-induced ulcer” value is reported as “+ (30 to less than 60%)”.

Take `CN(Cc1cccs1)C(=O)CCCSc1nnnn1C` [Compound 39, N-Methyl-N-(2-thienylmethyl)-4-(1-methyl-1,2,3,4-tetrazol-5-yl)thio-butyramide]: in series [5], the “Inhibitory ratio of indomethacin-induced ulcer” value is on record as “+ (30 to less than 60%)”. Also, the inhibition in vivo at 100 mg/kg in series [3] (setting [8]) was more than 50%.

Take `COC1CCC(NC(=O)CCCSc2nnnn2C)CC1` (stereo not shown) [Compound 45, N-(4-Methoxycyclohexyl)-4-(1-methyl-1,2,3,4-tetrazol-5-yl)thio-butyramide]: in series [5], the “Inhibitory ratio of indomethacin-induced ulcer” value is recorded as “++ (more than 60%)”. For the same compound, the inhibition in vivo at 100 mg/kg in series [3] (setting [8]) lay in the range of 10 to 50%.

As for `CCN(C(=O)CCCc1nnnn1-c1ccccc1)C1CCCCC1` [Compound 46, N-Ethyl-N-cyclohexyl-4-(1-phenyl-1,2,3,4-tetrazol-5-yl)butyramide], in series [5], the “Inhibitory ratio of indomethacin-induced ulcer” value is recorded as “++ (more than 60%)”. The “Inhibitory ratio of stress ulcer” value in series [2] was “++ (more than 60%)”. For the same compound, the inhibition in vivo at 100 mg/kg in series [3] (setting [6]) was less than 10%; in series [3] (setting [7]), 10 to 50%; in series [3] (setting [8]) it was 10 to 50%.

For the compound `CCCCNC(=O)CCCCc1nnnn1-c1ccccc1` [Compound 47, N-(n-Butyl)-5-(1-phenyl-1,2,3,4-tetrazol-5-yl)valeramide], the “Inhibitory ratio of indomethacin-induced ulcer” value in series [5] is recorded as “+ (30 to less than 60%)”. Moreover, in series [2], the “Inhibitory ratio of stress ulcer” value is “+ (30 to less than 60%)”.

Regarding `COc1ccc(NC(=O)CCCCc2nnnn2-c2ccccc2)cc1` [Compound 49, N-(4-Methoxyphenyl)-5-(1-phenyl-1,2,3,4-tetrazol-5-yl)valeramide], the “Inhibitory ratio of indomethacin-induced ulcer” value in series [5] is listed as “+ (30 to less than 60%)”. The “Inhibitory ratio of stress ulcer” value in series [2] was “+ (30 to less than 60%)”.

For the compound `CCCCN(C(=O)CCCSc1nnnn1C)C1CCCCC1` [Compound 55, N-Cyclohexyl-N-butyl-5-(1-methyl-1,2,3,4-tetrazol-5-yl)thio-butyramide], in series [4] (20 mg/kg.day), the “Inhibitory ratio of acetic acid-induced ulcer” value is “+ (30 to less than 60%)”.

Take “N,N-Dicyclohexyl-5-(1-methyl-1,2,3,4-tetrazol-5-yl)thio-butyramide [Compound 58]”: the “Inhibitory ratio of acetic acid-induced ulcer” value in series [4] (20 mg/kg.day) is given as “+ (30 to less than 60%)”.

In the case of “N-Ethyl-N-cyclooctyl-5-(1-methyl-1,2,3,4-tetrazol-5-yl)thio-butyramide [Compound 56]”, in series [4] (20 mg/kg.day), the “Inhibitory ratio of acetic acid-induced ulcer” value is “+ (30 to less than 60%)”.
